Non-standard residues stand in square brackets, D forms with d. Residues, ends and D or L forms follow the SMILES beside them. No end group written: not given here.
Columns and labels:
S. mitis ComD-2 receptor [1] = experiment: luminescence reporter activation assay (comX expression); type: cell-based, Streptococcus mitis; details: for EC50: S. mitis luciferase reporter strain ATCC49456 PcomX luc::Spc, 30 min at 37 °C, triplicate on three separate days
Method: The ability of synthetic S. mitis-CSP-2 analogs to activate the expression of S. mitis comX was determined using the constructed S. mitis luciferase reporter strain. First, bacteria from the S. mitis luciferase reporter strain freezer stock were streaked onto a Todd-Hewitt broth supplemented with 0.5% yeast extract (THY) agar plate containing 5% horse serum and spectinomycin at a final concentration of 200 μg/ml. The plate was incubated overnight in a CO2 incubator (37 °C with 5% CO2). Fresh colonies were transferred to Tryptic soy broth supplemented with spectinomycin at a final concentration of 200 μg/ml, and the culture was incubated at 37 °C in a 5% CO2-supplemented atmosphere and grown overnight (16 h) until the culture reached an absorbance at 600 nm (optical density at 600 nm [A600]) of 0.45. Overnight cultures of the S. mitis reporter strain at A600 0.45 were diluted 1:10 in Tryptic soy broth and the liquid cultures were incubated in a CO2 incubator for 30 to 45 min, until the bacteria reached early exponential stage (A600 ∼ 0.2) as determined by using a plate reader. During incubation, clear-bottom white 96-well microtiter plates were prepared for the activation assays. An initial activation screening was performed at a high peptide concentration (10,000 nM) for all the S. mitis-CSP-2 analogs (Figs. S1–S7). For each experimental sample, a total of 2 μl of a 1 mM CSP stock solution in dimethyl sulfoxide (DMSO) was added in triplicate to the clear-bottom white 96-well microtiter plate. A total of 2 μl of DMSO was added in triplicate and served as the negative control, and 2 μl of a 1 mM stock of native S. mitis-CSP-2 was added in triplicate as a positive control. In the dark, 2 μl of a 15 mg/ml D-luciferin stock in distilled water was added to each well. Following the addition of synthetic CSPs and D-luciferin, 196 μl of the diluted bacterial culture was added to each well, and the plate was incubated for 30 min at 37 °C. Following incubation, the A600 and luminescence of each experimental well were measured. Results were reported as percent activation, which is the ratio between the luminescence (presented as relative luminescence units, RLU/A600) of the analog and that of the positive control. […] EC50 values, the concentration of the peptide to achieve a half maximal response, for each activator were calculated using GraphPad Prism (https://www.graphpad.com/). Experiments were performed in triplicate on three separate days.
Primary reporter gene assay data
Agonism assays were performed at a 10 µM concentration of synthetic CSP. S. mitis-CSP-2 was used as the positive control (100%) while DMSO as the negative control (0%). For all figures, comX expression is presented as relative luminescence units (RLU) divided by measured cultural optical density (OD). Percent (%) ComD activation was measured by normalizing the RLU/OD value obtained for each peptide to that of the native S. mitis-CSP-2. The results are averages from three replicates and representative of three independent experiments. Error bars represent the standard error of the mean of nine values.
Figure S-1. Primary agonism screening assay data for the S. mitis-CSP-2 alanine scan analogs. Peptides […]
(1 picture or pasted object on this page, not shown here)

[2] = molecular target: pneumococcus ComD1 receptor; details: read-out: EC50, S. pneumoniae ComD1; cited from earlier work
Description: (§1) Table 5 EC50 or IC50 values of select Streptococcus mitis-CSP-2–based pneumococcal QS modulators against the pneumococcus ComD1 and ComD2 and the S. mitis ComD-2 receptors ^a | column: Streptococcus pneumoniae ^b / ComD1 / EC50 or IC50∗ (nM) || In our previous work, we utilized the S. mitis-CSP-2 scaffold to develop analogs capable of modulating the two pneumococcal ComD receptors at low nanomolar concentrations ([2]). We wanted to evaluate whether the optimization of the S. mitis-CSP-2 scaffold to the pneumococcus ComD receptors affected the ability of the modified analogs to interact with the S. mitis ComD-2 receptor.

[3] = molecular target: pneumococcus ComD2 receptor; details: read-out: EC50, S. pneumoniae ComD2; cited from earlier work
Description: as §1, with “/ ComD2” for “/ ComD1”

S. mitis ComD-2 receptor [4] = experiment: luminescence reporter competitive inhibition assay (comX expression); type: cell-based, Streptococcus mitis; details: for IC50: same reporter strain, competition against 1 μM native S. mitis-CSP-2, 30 min at 37 °C, triplicate on three separate days
Method: As a positive control, 2 μl of S. mitis-CSP-2 and 2 μl of DMSO were added to the same well in triplicate. As a negative control, 4 μl of DMSO was added in triplicate. Then, 2 μl of 15 mg/ml D-luciferin in distilled water was added to each experimental or control well, after which 194 μl of bacteria was added, and the plate was incubated for 30 min at 37 °C. Following incubation, the A600 and luminescence of each experimental well were measured. Results were reported as percent activation, which is the ratio between the luminescence (presented as relative luminescence units, RLU/A600) of the analog and that of the positive control. […] GraphPad Prism was used to calculate the IC50 values, which are the concentration of inhibitor where the response (or binding) is reduced by half. Experiments were performed in triplicate on three separate days.
Antagonism assays were performed at 10 μM concentration of peptides against 1 µM concentration of S. mitis-CSP-2. S. mitis-CSP-2 (1 µM) was used as the positive control (100%) while DMSO as the negative control (0%). For all figures, comX expression is presented as relative luminescence units (RLU) divided by measured cultural optical density (OD). Percent (%) ComD activation was measured by normalizing the RLU/OD value obtained for each peptide to that of the native S. mitis-CSP-2. The results are averages from three replicates and representative of three independent experiments. Error bars represent the standard error of the mean of nine values.
Figure S-8. Primary antagonism screening assay data for t he S. mitis-CSP-2 alanine scan and D-amino acid […]
determine its IC50 value.
Figure S-9. Primary antagonism screening assay data for t he S. mitis-CSP-2 truncated analogs . S. mitis- […]

Molecule	EC50 (S. mitis ComD-2 receptor [1]) [nM]	EC50 [2] [nM]	EC50 [3] [nM]	also measured
EMRQTHFFFFNFFKRR [S. mitis-CSP-2-I2MN7FI8F]	> 1000	63.6	13.5	
AIRQTHNIFFNFAKRR [S. mitis-CSP-2-E1AF13A]				IC50 (S. mitis ComD-2 receptor [4]): > 1000 nM
EMRQTHNFFFFFFKRR [S. mitis-CSP-2-I2MI8FN11F, S. mitis-CSP-2-based pneumococcal QS modulator from previous study]		6.95	26.2	
EIRQTANIFFNFFKRR [S. mitis-CSP-2-H6A]	> 1000			
CC[C@H](C)[C@H](NC(=O)[C@@H](N)CCC(=O)O)C(=O)N[C@@H](CCCNC(=N)N)C(=O)N[C@@H](CCC(N)=O)C(=O)N[C@H](C(=O)N[C@@H](Cc1c[nH]cn1)C(=O)N[C@H](CC(N)=O)C(=O)N[C@H](C(=O)N[C@@H](Cc1ccccc1)C(=O)N[C@@H](Cc1ccccc1)C(=O)N[C@@H](CC(N)=O)C(=O)N[C@@H](Cc1ccccc1)C(=O)N[C@@H](Cc1ccccc1)C(=O)N[C@@H](CCCCN)C(=O)N[C@@H](CCCNC(=N)N)C(=O)N[C@@H](CCCNC(=N)N)C(=O)O)[C@@H](C)CC)[C@@H](C)O [S. mitis-CSP-2-n7] (H-EIRQTH[dN]IFFNFFKRR-OH; N-terminus and C-terminus assumed)	> 1000			
CC[C@H](C)[C@H](NC(=O)[C@H](CC(N)=O)NC(=O)[C@@H](Cc1c[nH]cn1)NC(=O)[C@@H](NC(=O)[C@H](CCC(N)=O)NC(=O)[C@H](CCCNC(=N)N)NC(=O)[C@@H](NC(=O)[C@@H](N)CCC(=O)O)[C@@H](C)CC)[C@@H](C)O)C(=O)N[C@@H](Cc1ccccc1)C(=O)N[C@@H](Cc1ccccc1)C(=O)N[C@@H](CC(N)=O)C(=O)N[C@@H](Cc1ccccc1)C(=O)N[C@@H](Cc1ccccc1)C(=O)N[C@@H](CCCCN)C(=O)N[C@@H](CCCNC(=N)N)C(=O)N[C@@H](CCCNC(=N)N)C(=O)O [S. mitis-CSP-2-h6] (H-EIRQT[dH]NIFFNFFKRR-OH; N-terminus and C-terminus assumed)	> 1000			
EIRQTHNIAFNFFKRR [S. mitis-CSP-2-F9A]	> 1000			
EMRQTHNFFFNFFKRR [S. mitis-CSP-2-I2MI8F, S. mitis-CSP-2-based pneumococcal QS modulator from previous study]		151	83.2	
EMRLTHFIFFNFFKRR [S. mitis-CSP-2-I2MQ4LN7F]	> 1000	137	75.6	
CC[C@H](C)[C@H](NC(=O)[C@H](CC(N)=O)NC(=O)[C@H](Cc1c[nH]cn1)NC(=O)[C@H](NC(=O)[C@H](CCC(N)=O)NC(=O)[C@H](CCCNC(=N)N)NC(=O)[C@@H](NC(=O)[C@@H](N)CCC(=O)O)[C@@H](C)CC)[C@H](C)O)C(=O)N[C@@H](Cc1ccccc1)C(=O)N[C@@H](Cc1ccccc1)C(=O)N[C@@H](CC(N)=O)C(=O)N[C@@H](Cc1ccccc1)C(=O)N[C@@H](Cc1ccccc1)C(=O)N[C@@H](CCCCN)C(=O)N[C@@H](CCCNC(=N)N)C(=O)N[C@@H](CCCNC(=N)N)C(=O)O [S. mitis-CSP-2-t5] (H-EIRQ[dT]HNIFFNFFKRR-OH; N-terminus and C-terminus assumed)	> 1000			
CC[C@H](C)[C@H](NC(=O)[C@H](CC(N)=O)NC(=O)[C@H](Cc1c[nH]cn1)NC(=O)[C@@H](NC(=O)[C@@H](CCC(N)=O)NC(=O)[C@H](CCCNC(=N)N)NC(=O)[C@@H](NC(=O)[C@@H](N)CCC(=O)O)[C@@H](C)CC)[C@@H](C)O)C(=O)N[C@@H](Cc1ccccc1)C(=O)N[C@@H](Cc1ccccc1)C(=O)N[C@@H](CC(N)=O)C(=O)N[C@@H](Cc1ccccc1)C(=O)N[C@@H](Cc1ccccc1)C(=O)N[C@@H](CCCCN)C(=O)N[C@@H](CCCNC(=N)N)C(=O)N[C@@H](CCCNC(=N)N)C(=O)O [S. mitis-CSP-2-q4] (H-EIR[dQ]THNIFFNFFKRR-OH; N-terminus and C-terminus assumed)	> 1000			
EIRQTHNIFFNFF [S. mitis-CSP-2-des-K14R15R16, truncated analog of S. mitis-CSP-2]				ComD-2 activation: EC50 not determined due to the analog's low induction in primary agonism screening assay (S. mitis ComD-2 receptor [1]; initial screening at 10,000 nM peptide): complete loss of activity
EMRQTHFIFFNLFKRR [S. mitis-CSP-2-I2MN7FF12L]	> 1000	72.8	112	
EMRLTHNFFFNFFKRR [S. mitis-CSP-2-I2MQ4LI8F, S. mitis-CSP-2-based pneumococcal QS modulator from previous study]		42	30	
EMRLTHNIFFFFFKRR [S. mitis-CSP-2-I2MQ4LN11F]	> 1000	14.8	188	
AIRQTHNIFFNAFKRR [S. mitis-CSP-2-E1AF12A]				IC50 (S. mitis ComD-2 receptor [4]): > 1000 nM
IRQTHNIFFNFFKRR [S. mitis-CSP-2-des-E1]				% ComD activation, primary antagonism screening (S. mitis ComD-2 receptor [4]; 10 μM peptide against 1 µM S. mitis-CSP-2 (100%), DMSO 0%): less than 50%; IC50 (S. mitis ComD-2 receptor [4]): > 1000 nM
CC[C@H](C)[C@H](NC(=O)[C@H](C)N)C(=O)N[C@@H](CCCNC(=N)N)C(=O)N[C@@H](CCC(N)=O)C(=O)N[C@H](C(=O)N[C@@H](Cc1c[nH]cn1)C(=O)N[C@@H](CC(N)=O)C(=O)N[C@H](C(=O)N[C@@H](Cc1ccccc1)C(=O)N[C@H](Cc1ccccc1)C(=O)N[C@H](CC(N)=O)C(=O)N[C@@H](Cc1ccccc1)C(=O)N[C@@H](Cc1ccccc1)C(=O)N[C@@H](CCCCN)C(=O)N[C@@H](CCCNC(=N)N)C(=O)N[C@@H](CCCNC(=N)N)C(=O)O)[C@@H](C)CC)[C@@H](C)O [S. mitis-CSP-2-E1Af10n11] (H-AIRQTHNIF[dF][dN]FFKRR-OH; N-terminus and C-terminus assumed)				IC50 (S. mitis ComD-2 receptor [4]): > 1000 nM
EMRQTHIFFFNFFKRR [S. mitis-CSP-2-I2MN7II8F]	> 1000	61.6	2.67	
